Measurements published in patent publication EP0435794A1, “Alkenyl- or heteroaryl thio, sulfone, sulfoxy herbicides” (RHONE-POULENC AGROCHIMIE, priority 1989, dated 1991).

What was measured:
Format in all cases: in vivo
[1] = tested on: ORYSA SATIVA Cv Nihonbare; assay: Exemple D: herbicide application on submerged plants (rice paddy model), transplanted rice; conditions: rice transplanted 4 days before treatment, 24 days
Source text: (§1) Exemple D : Application herbicide en pré ou post levée d'espèces végétales submergées (modèle rizière)
(§2) Dans des pots de 9 x 9 x 9 cm remplis de terre agricole on sème un nombre de graines ou on plante un nombre de bulbes ou rhizomes déterminé en fonction de l'espèce végétale ou de la grosseur des organes. Pour le riz, 4 plants au stade 2-3 feuilles sont transplantés dans un pot rempli de terre végétale 4 jours avant le traitement.
(§3) Les pots sont ensuite immergés dans un bac de taille adapté aux pots de manière à ce que l'eau recouvre de 1 à 2 cm la surface du sol.
(§4) Le stade de traitement est le stade prélevée ou 1 à 2 feuilles développées des adventices. Le traitement est effectué par répartition de la bouillie dans l'eau de submersion en quantité correspondant à une dose d'application de 500 l/ha et contenant la matière active à la concentration requise.
(§5) La bouillie utilisée pour le traitement est une solution ou suspension de la matière active dans un mélange acétone/eau en proportion 50/50, en présence de 0,05 % en poids de Cemulsol NP 10 (agent tensioactif constitué d'alkylphénol polyéthoxylé, notamment de nonylphénol polyéthoxylé) et 0,04 % en poids de tween 20 (agent tensio-actif constitué d'un oléate de dérivé polyoxyéthyléné du sorbitol).
(§6) Dans le cas d'une suspension, celle-ci est obtenue en mélangeant et broyant les ingrédients dans un microniseur de façon à obtenir une grosseur moyenne de particules inférieures à 40 microns.
(§7) Le niveau d'eau de submersion est ensuite maintenu par apport d'eau tout au long de la durée de l'expérimentation soit […]. Les bacs contenant les pots sont placés dans une serre régulée en température à 18°C la nuit et 22°C le jour et en humidité à 70 % d'humidité relative.
(§8) Au bout de 24 jours, on compte le nombre de plantes vivantes dans les pots traités par la bouillie contenant la matière active à tester et le nombre de plantes vivantes dans un pot témoin traité selon les mêmes conditions, mais au moyen d'une bouillie ne contenant pas de matière active. On mesure ainsi un pourcentage (D) des destructions du nombre de pieds dans le pot traité par rapport au nombre de plantes dans les pots non traités (témoin). On mesure, sur les plantes traitées restantes, le pourcentage de réduction de taille (RT) par rapport aux plantes témoin. Le pourcentage du volume foliaire non détruit par le produit est donc donné par la formule: ([100-D] x [100-RT])/(100)= A [formula]
(§9) Cette valeur A est transformée en notation de 0 à 5 selon l'échelle suivante:
(§10) Les résultats obtenus sont présentés dans le tableau suivant pour des doses d'application de 500, 1000 ou 2000 g de matière active par hectare.
COMPOSE N°5/RIZ (transplanté 4 jours avant traitement)

Digitaria sanguinalis = assay: Exemple A: herbicide application, pre-emergence; conditions: dose 4 Kg m.a./ha, notation 0 à 5 after 24 days
Source text: (§11) Exemple A - Application herbicide, en prélevée des espèces végétales
(§12) Dans des pots de 7 x 7 x 8 cm remplis de terre agricole légère, on sème un nombre de graines déterminé en fonction de l'espèce végétale et de la grosseur de la graine.
(§13) Les pots sont traités par pulvérisation de bouillie en quantité correspondant à une dose volumique d'application de 500 l/ha et contenant la matière active à la concentration désirée.
(§14) Le traitement avec la bouillie est donc effectué sur des graines non recouvertes de terre (on utilise le terme de bouillie pour désigner, en général, les compositions diluées à l'eau, telles qu'on les applique sur les végétaux).
(§15) La bouillie utilisée pour le traitement est une solution ou suspension de la matière active dans un mélange acétone/eau en proportions 50/50, en présence de 0,05 % en poids de cemulsol NP 10 (agent tensio-actif) constitué d'alkylphénol polyéthoxylé, notamment de nonylphénol polyéthoxylé) et 0,04 % en poids de tween 20 (agent tensio-actif constitué d'un oléate de dérivé polyoxyéthyléné du sorbitol).
(§16) Dans le cas d'une suspension, celle-ci est obtenue en mélangeant et broyant les ingrédients dans un microniseur de façon à obtenir une grosseur moyenne de particules inférieure à 40 microns.
(§17) Après traitement, on recouvre les graines d'une couche de terre d'environ 3 mm d'épaisseur.
(§18) Les pots sont alors placés dans des bacs destinés à recevoir l'eau d'arrosage, en subirrigation, et maintenus pendant 24 jours à température ambiante sous 70 % d'humidité relative.
(§19) Le relevé est effectué de la façon suivante:
(§20) Au bout de 24 jours, on mesure un pourcentage (D) des destructions du nombre de pieds dans le pot traité par rapport au nombre de plantes dans les pots non traités (témoin). On mesure, sur les plantes traitées restantes, le pourcentage de réduction de taille (RT) par rapport aux plantes témoin.
(§21) Le pourcentage du volume foliaire non détruit par le produit est donc donné par la formule: ([100-D] x [100-RT])/(100)= A [formula]
as §9
(§22) Les résultats obtenus sont présentés après l'exemple B pour des doses d'application de 4000 g/ha à 1000 g/ha.
(§23) Les espèces végétales utilisées dans ces exemples A et B sont: […]

Cyperus esculentus = assay: Exemple A: herbicide application, pre-emergence; conditions: dose 4 Kg m.a./ha, notation 0 à 5 after 24 days
Source text: as §11, §12, §13, §14, §15, §16, §17, §18, §19, §20, §21, §9, §22, §23

Alopecurus myosuroïdes = assay: Exemple A: herbicide application, pre-emergence; conditions: dose 4 Kg m.a./ha, notation 0 à 5 after 24 days
Source text: as §11, §12, §13, §14, §15, §16, §17, §18, §19, §20, §21, §9, §22, §23

Avena fatua = assay: Exemple A: herbicide application, pre-emergence; conditions: dose 4 Kg m.a./ha, notation 0 à 5 after 24 days
Source text: as §11, §12, §13, §14, §15, §16, §17, §18, §19, §20, §21, §9, §22, §23

Echinochloa crus galli [2] = assay: Exemple A: herbicide application, pre-emergence; conditions: dose 4 Kg m.a./ha, notation 0 à 5 after 24 days
Source text: as §11, §12, §13, §14, §15, §16, §17, §18, §19, §20, §21, §9, §22, §23

CYPERUS SEROTINUS = assay: Exemple D: herbicide application pre or post emergence on submerged plants (rice paddy model); conditions: 24 days; for % d'efficacité CYPERUS SEROTINUS (1 feuille): 1-leaf stage; for % d'efficacité CYPERUS SEROTINUS (prélevée): pre-emergence
Source text: as §1, §2, §3, §4, §5, §6, §7, §8, §9, §10

ALISMA CANALICULATUM = assay: as above; conditions: 2-leaf stage, 24 days
Source text: as §1, §2, §3, §4, §5, §6, §7, §8, §9, §10

Echinochloa crus galli [3] = assay: as above; conditions: 24 days; for % d'efficacité ECHINOCHLOA CRUS GALLI (1 feuille): 1-leaf stage; for % d'efficacité ECHINOCHLOA CRUS GALLI (prélevée): pre-emergence
Source text: as §1, §2, §3, §4, §5, §6, §7, §8, §9, §10

[4] = 500 g de matière active par hectare
[5] = 1000 g de matière active par hectare
[6] = 2000 g de matière active par hectare

## C=C(CS(=O)(=O)c1sccc1Cl)c1cccc(F)c1 [compound 5, 1-[(3-chloro 2-thiényl)sulfonyl] 2-(3-fluorophényl) 2-propène]
[1]; [4]
  % d'efficacité ORYSA SATIVA Cv Nihonbare: 0 (90 à 100)
[1]; [5]
  % d'efficacité ORYSA SATIVA Cv Nihonbare: 0 (90 à 100)
[1]; [6]
  % d'efficacité ORYSA SATIVA Cv Nihonbare: 0 (90 à 100)
Digitaria sanguinalis
  ACTIVITE HERBICIDE DE PRELEVEE DIG: 5 (O à 10)
Cyperus esculentus
  ACTIVITE HERBICIDE DE PRELEVEE CYP: 5 (O à 10)
Alopecurus myosuroïdes
  ACTIVITE HERBICIDE DE PRELEVEE ALO: 5 (O à 10)
Avena fatua
  ACTIVITE HERBICIDE DE PRELEVEE AVE: 5 (O à 10)
Echinochloa crus galli [2]
  ACTIVITE HERBICIDE DE PRELEVEE ECH: 5 (O à 10)
CYPERUS SEROTINUS; [4]
  % d'efficacité CYPERUS SEROTINUS (1 feuille): 3 (30 à 50)
  % d'efficacité CYPERUS SEROTINUS (prélevée): 2 (50 à 70)
CYPERUS SEROTINUS; [5]
  % d'efficacité CYPERUS SEROTINUS (1 feuille): 4 (10 à 30)
  % d'efficacité CYPERUS SEROTINUS (prélevée): 5 (0 à 10)
CYPERUS SEROTINUS; [6]
  % d'efficacité CYPERUS SEROTINUS (1 feuille): 5 (0 à 10)
  % d'efficacité CYPERUS SEROTINUS (prélevée): 5 (0 à 10)
ALISMA CANALICULATUM; [4]
  % d'efficacité ALISMA CANALICULATUM (2 feuilles): 3 (30 à 50)
ALISMA CANALICULATUM; [5]
  % d'efficacité ALISMA CANALICULATUM (2 feuilles): 4 (10 à 30)
ALISMA CANALICULATUM; [6]
  % d'efficacité ALISMA CANALICULATUM (2 feuilles): 4 (10 à 30)
Echinochloa crus galli [3]; [4]
  % d'efficacité ECHINOCHLOA CRUS GALLI (1 feuille): 4 (10 à 30)
  % d'efficacité ECHINOCHLOA CRUS GALLI (prélevée): 5 (0 à 10)
Echinochloa crus galli [3]; [5]
  % d'efficacité ECHINOCHLOA CRUS GALLI (1 feuille): 4 (10 à 30)
  % d'efficacité ECHINOCHLOA CRUS GALLI (prélevée): 5 (0 à 10)
Echinochloa crus galli [3]; [6]
  % d'efficacité ECHINOCHLOA CRUS GALLI (1 feuille): 4 (10 à 30)
  % d'efficacité ECHINOCHLOA CRUS GALLI (prélevée): 5 (0 à 10)
